Test system: C-reactive protein (CRP)
Test: CRP (hs-CRP) in blood, CHASE clinical study
Type: in vivo, human
Conditions: Group X 12 mg BID; for CRP Max / CRP Mean (SD) / CRP Median / CRP Min: V6 Week 12
Description: This is a two-part study comprising Part I and Part II. Following screening, Part I consists of a randomized, double-blind, placebo controlled dosing period of up to 12 weeks. The study shall be conducted at one or more study sites in Hawaii. Approximately 360 subjects qualified after completion of screening procedures shall be randomized in a 1:1:1 ratio to one of three treatment groups, per Table 1.
The Part I 12-week double-blind dosing period commences with V2, including randomization and first dose of study product, and continues with study visits at Week 1-2 (V3), Week 4 (V4), Week 8 (V5), and Week 12 (V6). V6 procedures will conclude Part I.
Blood shall be obtained at each visit for CRP. The screening specimen shall be processed at the local lab and reported to the study staff for eligibility determination; CRP samples at V7 and V8 may also be processed locally and reported directly to study staff. Samples for CRP from V2 through V6 may be batched, processed, and reported as specified in the Laboratory Manual.
At each these visits, blood was obtained for measurement of CRP, among other parameters. Table 7A provides a summary of the CRP measurements (mg/L) at each visit and Table 7B provides a summary of the differences of CRP levels between V2 and V6.

[1] = subjects with DM2, hypertension and hyperlipidemia but not CAD
[2] = subjects with Diabetes Mellitus Type II
[3] = subjects with baseline level greater than 2.0
[4] = baseline to Week 12, all subjects
[5] = baseline to Week 12, subjects not taking a hypertension agent
[6] = baseline to Week 12, subjects not taking any cardiac therapeutic agent
[7] = baseline to Week 12, subjects not taking statins
[8] = baseline to Week 12, subjects taking an anti-diabetic agent
[9] = baseline to Week 12, subjects with CAD
[10] = baseline to Week 12, subjects with DM2, hypertension and hyperlipidemia but not CAD
[11] = baseline to Week 12, subjects with Diabetes Mellitus Type II
[12] = baseline to Week 12, subjects with baseline level greater than 2.0
[13] = baseline to Week 12, subjects with hyperlipidemia

SMILES: CC1=C(/C=C/C(C)=C/C=C/C(C)=C/C=C/C=C(C)/C=C/C=C(C)/C=C/C2=C(C)C(=O)C(O)CC2(C)C)C(C)(C)CC(O)C1=O (stereo not drawn) [Astaxanthin, astaxanthin]
- CRP Max [1]: 6.80 mg/L
- CRP Mean (SD) [1]: 2.95 (2.32) mg/L
- CRP Median [1]: 1.91 mg/L
- CRP Min [1]: 1.02 mg/L
- CRP Max [2]: 6.80 mg/L
- CRP Mean (SD) [2]: 2.91 (2.07) mg/L
- CRP Median [2]: 2.32 mg/L
- CRP Min [2]: 1.02 mg/L
- CRP Max [3]: 11.04 mg/L
- CRP Mean (SD) [3]: 3.69 (3.14) mg/L
- CRP Median [3]: 2.71 mg/L
- CRP Min [3]: 0.22 mg/L
- CRP Max (subjects with hyperlipidemia): 11.04 mg/L
- CRP Mean (SD) (subjects with hyperlipidemia): 3.90 (3.38) mg/L
- CRP Median (subjects with hyperlipidemia): 2.71 mg/L
- CRP Min (subjects with hyperlipidemia): 1.02 mg/L
- CRP V2 to V6 % Change Max [4]: 122.6%
- CRP V2 to V6 % Change Mean [4]: −21.3%
- CRP V2 to V6 % Change Median [4]: −31.8%
- CRP V2 to V6 % Change Min [4]: −89.8%
- CRP V2 to V6 Change Max [4]: 6.08 mg/L
- CRP V2 to V6 Change Mean [4]: -2.07 mg/L
- CRP V2 to V6 Change Median [4]: -1.57 mg/L
- CRP V2 to V6 Change Min [4]: -11.1 mg/L
- CRP V2 to V6 % Change Max [5]: −25.8, −25.8%
- CRP V2 to V6 % Change Mean (SD) [5]: −25.8%
- CRP V2 to V6 % Change Median [5]: −25.8%
- CRP V2 to V6 % Change Min [5]: −25.8, −25.8%
- CRP V2 to V6 Change Max [5]: −0.94, −0.94 mg/L
- CRP V2 to V6 Change Mean (SD) [5]: -0.94 mg/L
- CRP V2 to V6 Change Median [5]: -0.94 mg/L
- CRP V2 to V6 Change Min [5]: −0.94, −0.94 mg/L
- CRP V2 to V6 % Change Max [6]: −25.8%
- CRP V2 to V6 % Change Mean (SD) [6]: −56.6 (29.46) %
- CRP V2 to V6 % Change Median [6]: −61.9%
- CRP V2 to V6 % Change Min [6]: −89.8%
- CRP V2 to V6 Change Max [6]: -0.37 mg/L
- CRP V2 to V6 Change Mean (SD) [6]: −4.28 (4.63) mg/L
- CRP V2 to V6 Change Median [6]: -1.94 mg/L
- CRP V2 to V6 Change Min [6]: -11.1 mg/L
- CRP V2 to V6 % Change Max [7]: 122.6%
- CRP V2 to V6 % Change Mean (SD) [7]: 2.34 (88.58) %
- CRP V2 to V6 % Change Median [7]: −25.6%
- CRP V2 to V6 % Change Min [7]: −89.8%
- CRP V2 to V6 Change Max [7]: 6.08 mg/L
- CRP V2 to V6 Change Mean (SD) [7]: −0.18 (4.04) mg/L
- CRP V2 to V6 Change Median [7]: -0.80 mg/L
- CRP V2 to V6 Change Min [7]: -5.89 mg/L
- CRP V2 to V6 % Change** Max [8]: −26.6%
- CRP V2 to V6 % Change** Mean (SD) [8]: −52.9 (20.70) %
- CRP V2 to V6 % Change** Median [8]: −55.7%
- CRP V2 to V6 % Change** Min [8]: −78.8%
- CRP V2 to V6 Change Max [8]: -0.37 mg/L
- CRP V2 to V6 Change Mean (SD) [8]: −4.61 (4.14) mg/L
- CRP V2 to V6 Change Median [8]: -3.76 mg/L
- CRP V2 to V6 Change Min [8]: -11.1 mg/L
- CRP V2 to V6 % Change Max [9]: −68.4%
- CRP V2 to V6 % Change Mean (SD) [9]: −68.4%
- CRP V2 to V6 % Change Median [9]: −68.4%
- CRP V2 to V6 % Change Min [9]: −68.48%
- CRP V2 to V6 Change Max [9]: −5.89, −5.89 mg/L
- CRP V2 to V6 Change Mean (SD) [9]: -5.89 mg/L
- CRP V2 to V6 Change Median [9]: -5.89 mg/L
- CRP V2 to V6 Change Min [9]: −5.89, −5.89 mg/L
- CRP V2 to V6 % Change Max [10]: −26.6%
- CRP V2 to V6 % Change Mean (SD) [10]: −49.7 (21.51) %
- CRP V2 to V6 % Change Median [10]: −49.5%
- CRP V2 to V6 % Change Min [10]: −78.8%
- CRP V2 to V6 Change Max [10]: -0.37 mg/L
- CRP V2 to V6 Change Mean (SD) [10]: −4.35 (4.57) mg/L
- CRP V2 to V6 Change Median [10]: -1.63 mg/L
- CRP V2 to V6 Change Min [10]: -11.1 mg/L
- CRP V2 to V6 % Change Max [11]: −26.6%
- CRP V2 to V6 % Change Mean (SD) [11]: −52.9 (20.70) %
- CRP V2 to V6 % Change Median [11]: −55.7%
- CRP V2 to V6 % Change Min [11]: −78.8%
- CRP V2 to V6 Change Max [11]: -0.37 mg/L
- CRP V2 to V6 Change Mean (SD) [11]: −4.61 (4.14) mg/L
- CRP V2 to V6 Change Median [11]: -3.76 mg/L
- CRP V2 to V6 Change Min [11]: -11.1 mg/L
- CRP V2 to V6 % Change Max [12]: 122.6%
- CRP V2 to V6 % Change Mean (SD) [12]: −20.8 (73.37) %
- CRP V2 to V6 % Change Median [12]: −40.7%
- CRP V2 to V6 % Change Min [12]: −89.8%
- CRP V2 to V6 Change Max [12]: 6.08 mg/L
- CRP V2 to V6 Change Mean (SD) [12]: −2.24 (4.83) mg/L
- CRP V2 to V6 Change Median [12]: -1.60 mg/L
- CRP V2 to V6 Change Min [12]: -11.1 mg/L
- CRP V2 to V6 % Change Max [13]: 122.6%
- CRP V2 to V6 % Change Mean (SD) [13]: −27.5 (63.84) %
- CRP V2 to V6 % Change Median [13]: −40.7%
- CRP V2 to V6 % Change Min [13]: −78.8%
- CRP V2 to V6 Change Max [13]: 6.08 mg/L
- CRP V2 to V6 Change Mean (SD) [13]: −2.81 (5.17) mg/L
- CRP V2 to V6 Change Median [13]: -1.60 mg/L
- CRP V2 to V6 Change Min [13]: -11.1 mg/L

Reference: patent US20200085776A1, “Methods of Reducing C-Reactive Protein and/or Treating Cardiovascular Disease” (CARDAX, INC., priority 2018, published 2020)
